Experimental data reported in patent US7384788B2, “Regulator/promoter for tunable gene expression and metabolite sensing” (priority 2003, dated 2008).
Like-named read-outs stand apart in the source and are kept apart here.

Assays:
[1] = system: yhcRQP-luxCDABE gene fusion; assay: Bioluminescence activation test in strain DPD2411, LB medium pH 7.0; type: cell-based, E. coli; settings: Experiment code A; for Concentration of maximum response: strain DPD2411, LB pH 7.0; for treated RLU: strain DPD2411, at concentration of maximum response; for Ratio: strain DPD2411, treated RLU/control RLU
Text: (§1) A derivative of E. coli strain MG1655 (obtained from Prof. Douglas Berg, Washington University School of Medicine, St. Louis, […].) with the yhcS::TN<Kan> mutation was made by P1clr100Cm mediated transduction using phage grown on strain DPD2410 as a donor and selection for kanamycin resistance. The presence of the yhcS::TN<Kan> mutation in one of the resultant transductants, named DPD2433, was confirmed by PCR amplification. Plasmid pDEW655 was moved to E. coli strains MG1655 and DPD2433 by transformation, selecting for Ampicillin resistance to generate strains DPD2436 and DPD2437, respectively. The bioluminescent response of these two strains to pHBA was tested. Aliquots (50 μl) of actively growing cultures at 37° C. in LB medium that had been previously diluted, and from overnight cultures in LB medium with 150 μg/ml Ampicillin were added to 50 μl of LB medium at pH 7.0 containing pHBA as the sodium salt form. Several concentrations of pHBA were tested.
Further characterization of the signals that trigger activation of YhcS, was done using the yhcRQP-luxCDABE gene fusion containing E. coli strains DPD2411 or DPD2436. […] Several weak, aromatic acid molecules in addition to those shown in the Examples above activated expression.

[2] = system: yhcRQP-luxCDABE gene fusion; assay: LuxArray bioluminescent response, strain DPD2411 (tolC- host); type: cell-based, E. coli; settings: for Replica 1 normalized RLU / Replica 2 normalized RLU: LB medium; for upregulation of gene fusion lux-a.pk035.c7 in LuxArray profile: pHCA 10 mM and 5 mM, CA 8 mM and 4 mM; for bioluminescent response of the yhcRQP-luxCDABE gene fusion (in words): time points other than the zero time point
[3] = system: yhcRQP-luxCDABE gene fusion; assay: Bioluminescence response in yhcS+ strain DPD2436 (MG1655 host); type: cell-based, E. coli; settings: for Concentration of maximum response: strain DPD2436, LB pH 7.0; for treated RLU: strain DPD2436, at concentration of maximum response; for Ratio: strain DPD2436, treated RLU/control RLU
Text: as §1, with “The presence of the yhcS::TN<Kan> mutation in one of the resultant transductants, named DPD2433, was confirmed by PCR amplification.” left out
Further characterization of the signals that trigger activation of YhcS, was done using the yhcRQP-luxCDABE gene fusion containing E. coli strains DPD2411 or DPD2436.

[4] = system: yciG-luxCDABE gene fusion; settings: for activation of acid responsive yciG-luxCDABE gene fusion (in words): concentrations tested, 100 minutes; for RLU at 100 minutes: yciG-luxCDABE, pH 7.0
Text: (§2) Three E. coli strains, each in the same host strain but carrying different, plasmid-borne, promoter-luxCDABE fusions were used. Strain DPD2411 contains a yhcRQP-luxCDABE gene fusion as described in Example 2. Strain DPD2084 contains a yciG-luxCDABE gene fusion that has been previously described. Strain DPD3282 contains a lysU-luxCDABE gene fusion that was part of the LuxA collection of gene fusions, described in Example 2. The plasmid in this strain, pDEW558, contains an E. coli chromosomal segment between nucleotides 4350990 and 4353107 according to the E. coli genomic sequence; the orientation of the chromosomal segment is such that the lysU promoter region controls expression of luxCDABE. Each of these three strains was grown overnight in Vogel-Bonner minimal medium with 0.4% glucose as the carbon source and supplemented with L-proline, L-lysine, uracil and 25 μg/ml Ampicillin. The overnight cultures were diluted into the same medium except lacking Ampicillin and incubated at 37° C. until in mid-exponential growth. Aliquots (50 μl) of these actively growing cultures were added to 50 μl of the same medium at pH 7.0 without Ampicillin but containing various concentrations of sodium acetate or sodium salicylate in the wells of a 96 well, white microplate (Microlite, Dynex Technologies). Immediately after adding the cell culture, the bioluminescence was quantitated in a microplate luminometer in the kinetic mode.

[5] = system: yhcRQP-luxCDABE gene fusion; settings: for activation of expression of yhcRQP-luxCDABE (in words): concentrations tested, 100 minutes; for RLU at 100 minutes: yhcRQP-luxCDABE, pH 7.0
Text: as §2

[6] = system: lysU-luxCDABE gene fusion; settings: for activation of acid responsive lysU-luxCDABE gene fusion (in words): concentrations tested, 100 minutes; for RLU at 100 minutes: lysU-luxCDABE, pH 7.0
Text: as §2

Structure (SMILES): O=C(O)c1cccc2ccccc12 [1-napthoate]
- Concentration of maximum response [1]: 2.5 mM
- treated RLU [1]: 29.662 RLU
- Ratio [1]: 132

Structure (SMILES): O=C(O)C=Cc1ccccc1 [CA, cinnamic acid]
- Replica 1 normalized RLU ([2]; 4 mM CA, 0 min): 0.026 RLU
- Replica 2 normalized RLU ([2]; 4 mM CA, 0 min): 0.062 RLU
- Replica 1 normalized RLU ([2]; 4 mM CA, 45 min): 4.092 RLU
- Replica 2 normalized RLU ([2]; 4 mM CA, 45 min): 2.928 RLU
- Replica 1 normalized RLU ([2]; 4 mM CA, 90 min): 5.845 RLU
- Replica 2 normalized RLU ([2]; 4 mM CA, 90 min): 4.951 RLU
- Replica 1 normalized RLU ([2]; 4 mM CA, 135 min): 5.394 RLU
- Replica 2 normalized RLU ([2]; 4 mM CA, 135 min): 3.678 RLU
- Replica 1 normalized RLU ([2]; 8 mM CA, 0 min): 0.022 RLU
- Replica 2 normalized RLU ([2]; 8 mM CA, 0 min): 0.054 RLU
- Replica 1 normalized RLU ([2]; 8 mM CA, 45 min): 4.937 RLU
- Replica 2 normalized RLU ([2]; 8 mM CA, 45 min): 3.405 RLU
- Replica 1 normalized RLU ([2]; 8 mM CA, 90 min): 8.379 RLU
- Replica 2 normalized RLU ([2]; 8 mM CA, 90 min): 6.193 RLU
- Replica 1 normalized RLU ([2]; 8 mM CA, 135 min): 6.981 RLU
- Replica 2 normalized RLU ([2]; 8 mM CA, 135 min): 5.746 RLU
- upregulation of gene fusion lux-a.pk035.c7 in LuxArray profile [2]: several hundred-fold upregulated
- bioluminescent response of the yhcRQP-luxCDABE gene fusion (in words) [2]: dramatic upregulation

Structure (SMILES): O=C([O-])c1ccccc1.[Na+] [Sodium benzoate]
- Concentration of maximum response ([3]; Experiment code B): 6.2 mM
- treated RLU ([3]; Experiment code B): 3.759 RLU
- Ratio ([3]; Experiment code B): 13
- Concentration of maximum response ([3]; Experiment code C): 12.5 mM
- treated RLU ([3]; Experiment code C): 8.093 RLU
- Ratio ([3]; Experiment code C): 12

Structure (SMILES): O=C([O-])c1ccc(O)cc1.[Na+] [Sodium pHBA]
- Concentration of maximum response ([3]; Experiment code C): 50 mM
- treated RLU ([3]; Experiment code C): 91.658 RLU
- Ratio ([3]; Experiment code C): 145
- Concentration of maximum response ([3]; Experiment code D): 50 mM
- treated RLU ([3]; Experiment code D): 48.643 RLU
- Ratio ([3]; Experiment code D): 248
- Concentration of maximum response [1]: 25 mM
- treated RLU [1]: 69.678 RLU
- Ratio [1]: 302

Structure (SMILES): O=C([O-])c1ccccc1O.[Na+] [Sodium salicylate]
- activation of acid responsive yciG-luxCDABE gene fusion (in words) [4]: did not increase expression
- RLU at 100 minutes ([4]; 0.6 mM salicylate): 0.19 RLU
- RLU at 100 minutes ([4]; 5.0 mM salicylate): 0.13 RLU
- activation of expression of yhcRQP-luxCDABE (in words) [5]: upregulated expression
- RLU at 100 minutes ([5]; 0.6 mM salicylate): 7.9 RLU
- RLU at 100 minutes ([5]; 5.0 mM salicylate): 26.0 RLU
- activation of acid responsive lysU-luxCDABE gene fusion (in words) [6]: did not increase expression
- RLU at 100 minutes ([6]; 0.6 mM salicylate): 1.3 RLU
- RLU at 100 minutes ([6]; 5.0 mM salicylate): 0.89 RLU
- Concentration of maximum response ([3]; Experiment code D): 6.2 mM
- treated RLU ([3]; Experiment code D): 14.703 RLU
- Ratio ([3]; Experiment code D): 77

Structure (SMILES): CC(=O)[O-].[Na+] [acetate, sodium acetate]
- activation of acid responsive yciG-luxCDABE gene fusion (in words) [4]: did activate
- RLU at 100 minutes ([4]; 80 mM acetate): 0.35 RLU
- RLU at 100 minutes ([4]; 160 mM acetate): 0.80 RLU
- activation of expression of yhcRQP-luxCDABE (in words) [5]: did not activate expression
- RLU at 100 minutes ([5]; 80 mM acetate): 0.14 RLU
- RLU at 100 minutes ([5]; 160 mM acetate): 0.08 RLU
- activation of acid responsive lysU-luxCDABE gene fusion (in words) [6]: did activate
- RLU at 100 minutes ([6]; 80 mM acetate): 1.4 RLU
- RLU at 100 minutes ([6]; 160 mM acetate): 6.0 RLU

Structure (SMILES): CCO [ethanol]
- Replica 1 normalized RLU ([2]; 3% ethanol, 0 min): 0.024 RLU
- Replica 2 normalized RLU ([2]; 3% ethanol, 0 min): 0.038 RLU
- Replica 1 normalized RLU ([2]; 3% ethanol, 45 min): 0.024 RLU
- Replica 2 normalized RLU ([2]; 3% ethanol, 45 min): 0.029 RLU
- Replica 1 normalized RLU ([2]; 3% ethanol, 90 min): 0.022 RLU
- Replica 2 normalized RLU ([2]; 3% ethanol, 90 min): 0.026 RLU
- Replica 1 normalized RLU ([2]; 3% ethanol, 135 min): 0.012 RLU
- Replica 2 normalized RLU ([2]; 3% ethanol, 135 min): 0.014 RLU
- Replica 1 normalized RLU ([2]; 5% ethanol, 0 min): 0.022 RLU
- Replica 2 normalized RLU ([2]; 5% ethanol, 0 min): 0.037 RLU
- Replica 1 normalized RLU ([2]; 5% ethanol, 45 min): 0.014 RLU
- Replica 2 normalized RLU ([2]; 5% ethanol, 45 min): 0.017 RLU
- Replica 1 normalized RLU ([2]; 5% ethanol, 90 min): 0.022 RLU
- Replica 2 normalized RLU ([2]; 5% ethanol, 90 min): 0.017 RLU
- Replica 1 normalized RLU ([2]; 5% ethanol, 135 min): 0.015 RLU
- Replica 2 normalized RLU ([2]; 5% ethanol, 135 min): 0.014 RLU
- bioluminescent response of the yhcRQP-luxCDABE gene fusion (in words) [2]: does not induce increased bioluminescence

Structure (SMILES): O=C(O)C=Cc1ccc(O)cc1 [pHCA, para-hydroxycinnamic acid]
- Replica 1 normalized RLU ([2]; 5 mM pHCA, 0 min): 0.056 RLU
- Replica 2 normalized RLU ([2]; 5 mM pHCA, 0 min): 0.043 RLU
- Replica 1 normalized RLU ([2]; 5 mM pHCA, 45 min): 10.695 RLU
- Replica 2 normalized RLU ([2]; 5 mM pHCA, 45 min): 9.325 RLU
- Replica 1 normalized RLU ([2]; 5 mM pHCA, 90 min): 14.276 RLU
- Replica 2 normalized RLU ([2]; 5 mM pHCA, 90 min): 14.754 RLU
- Replica 1 normalized RLU ([2]; 5 mM pHCA, 135 min): 13.533 RLU
- Replica 2 normalized RLU ([2]; 5 mM pHCA, 135 min): 10.587 RLU
- Replica 1 normalized RLU ([2]; 10 mM pHCA, 0 min): 0.056 RLU
- Replica 2 normalized RLU ([2]; 10 mM pHCA, 0 min): 0.034 RLU
- Replica 1 normalized RLU ([2]; 10 mM pHCA, 45 min): 9.094 RLU
- Replica 2 normalized RLU ([2]; 10 mM pHCA, 45 min): 7.31 RLU
- Replica 1 normalized RLU ([2]; 10 mM pHCA, 90 min): 14.314 RLU
- Replica 2 normalized RLU ([2]; 10 mM pHCA, 90 min): 11.164 RLU
- Replica 1 normalized RLU ([2]; 10 mM pHCA, 135 min): 15.283 RLU
- Replica 2 normalized RLU ([2]; 10 mM pHCA, 135 min): 12.867 RLU
- upregulation of gene fusion lux-a.pk035.c7 in LuxArray profile [2]: several hundred-fold upregulated
- bioluminescent response of the yhcRQP-luxCDABE gene fusion (in words) [2]: dramatic upregulation
